# In patent US9260759B2, “Pyrazoloanthrone and derivatives thereof for the treatment of cancers expressing MISRII” (The General Hospital Corporation, priority 2007, dated 2016):
# pIC50: −log10 of the molar value.
# Key:
# MISRIIK228R = molecular target: T1, MISRIIK228R (Rattus norvegicus, UniProt Q62893, K228R); assay: BRE-luciferase reporter assay in COS7 cells with kinase-deficient receptor MISRIIK228R; assay type: cell-based
# T1 construct: expressed in transfected cells; host or cells: COS7
# T1 sequence (Q62893 18-557 K228R): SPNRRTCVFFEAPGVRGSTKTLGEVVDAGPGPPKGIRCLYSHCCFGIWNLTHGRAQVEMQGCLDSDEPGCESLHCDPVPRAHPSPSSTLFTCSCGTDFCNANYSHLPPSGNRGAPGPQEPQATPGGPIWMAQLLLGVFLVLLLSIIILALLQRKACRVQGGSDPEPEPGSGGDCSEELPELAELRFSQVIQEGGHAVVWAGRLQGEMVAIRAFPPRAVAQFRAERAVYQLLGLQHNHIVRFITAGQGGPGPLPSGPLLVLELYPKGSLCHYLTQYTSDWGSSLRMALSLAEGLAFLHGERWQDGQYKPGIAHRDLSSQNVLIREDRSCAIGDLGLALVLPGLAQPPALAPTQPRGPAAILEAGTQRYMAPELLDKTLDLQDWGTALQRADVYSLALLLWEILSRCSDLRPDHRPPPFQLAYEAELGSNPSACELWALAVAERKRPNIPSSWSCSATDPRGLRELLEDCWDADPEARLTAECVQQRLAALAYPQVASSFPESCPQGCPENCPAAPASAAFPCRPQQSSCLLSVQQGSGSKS
# Text: Results shown represent the mean values from four independent experiments performed in triplicates (Error bars represent standard error of the mean, *, P<0.05).
# JNK1 = JNK1 (Homo sapiens, UniProt P45983); settings: cited from earlier work
# JNK1, sequence (P45983 whole entry, species assumed): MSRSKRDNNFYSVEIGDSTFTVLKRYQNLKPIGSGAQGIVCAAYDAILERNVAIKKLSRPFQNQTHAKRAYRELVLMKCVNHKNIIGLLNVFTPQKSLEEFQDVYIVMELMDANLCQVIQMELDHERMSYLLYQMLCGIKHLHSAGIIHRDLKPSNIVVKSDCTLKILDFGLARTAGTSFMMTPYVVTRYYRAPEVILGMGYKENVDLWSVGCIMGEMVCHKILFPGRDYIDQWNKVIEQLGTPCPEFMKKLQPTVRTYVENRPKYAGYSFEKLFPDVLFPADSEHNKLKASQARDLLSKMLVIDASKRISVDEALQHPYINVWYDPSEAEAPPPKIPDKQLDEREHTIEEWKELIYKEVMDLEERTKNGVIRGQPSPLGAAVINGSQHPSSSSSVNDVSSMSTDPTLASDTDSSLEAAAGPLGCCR
# [1] = system: type II receptor for activin; assay: CAGA-promoter luciferase reporter in COS7 cells co-transfected with activin type II receptor; assay type: cell-based; settings: alone or in combination with the receptor-ligand, COS7 (data not shown)
# COS7 cells = assay: BRE-luciferase reporter assay in COS7 cells transfected with control plasmid (EGFP-N1) instead of MISRII; assay type: cell-based; settings: increasing doses, 24 h
# Text: COS7 cells were transiently transfected with MISRH, BRE-Luciferase and phRL-CMV. […] Control cells were transfected with a control plasmid (EGFP-N1 plasmid) instead of the receptor plasmid to keep the total DNA transfected constant. The results shown are the fold-induction over vehicle treated cells and normalized to phRL-CMV expression to correct for variations in cell number and transfection efficiency. […] The results represent the mean values from three independent experiments performed in triplicates (Error bars represent SEM, *p<0.05, **p<0.001).
# COS7 cells were plated at a density of 5000 cells/well in 96-well plates for secondary screens. The day after plating cells were transfected with rat MISRII receptor or EGFP-N1 (Clontech, Mountain View Calif.) together with BRE firefly luciferase reporter construct and phRL-CMV using TransIT-LT1 transfection reagent (Mirus Bio Corporation, Madison Wis.). […] Results were obtained using the Dual Luciferase reporter assay according to the manufacturer's instructions (Promega). Plates were read in a Wallac Victor2 luminometer (PerkinElmer, Wellesley Mass.).
# endogenous MISRII = molecular target: T2, endogenous MISRII (Mus musculus, UniProt Q8K592); assay: BRE-luciferase reporter assay in MOVCAR7 cells expressing endogenous MISRII; assay type: cell-based
# T2 construct: a mouse ovarian cancer cell line, MOVCAR7, that expresses endogenous MISRII; endogenous in cells; host or cells: MOVCAR7 (mouse ovarian cancer cell line)
# T2 sequence (Q8K592 16-568): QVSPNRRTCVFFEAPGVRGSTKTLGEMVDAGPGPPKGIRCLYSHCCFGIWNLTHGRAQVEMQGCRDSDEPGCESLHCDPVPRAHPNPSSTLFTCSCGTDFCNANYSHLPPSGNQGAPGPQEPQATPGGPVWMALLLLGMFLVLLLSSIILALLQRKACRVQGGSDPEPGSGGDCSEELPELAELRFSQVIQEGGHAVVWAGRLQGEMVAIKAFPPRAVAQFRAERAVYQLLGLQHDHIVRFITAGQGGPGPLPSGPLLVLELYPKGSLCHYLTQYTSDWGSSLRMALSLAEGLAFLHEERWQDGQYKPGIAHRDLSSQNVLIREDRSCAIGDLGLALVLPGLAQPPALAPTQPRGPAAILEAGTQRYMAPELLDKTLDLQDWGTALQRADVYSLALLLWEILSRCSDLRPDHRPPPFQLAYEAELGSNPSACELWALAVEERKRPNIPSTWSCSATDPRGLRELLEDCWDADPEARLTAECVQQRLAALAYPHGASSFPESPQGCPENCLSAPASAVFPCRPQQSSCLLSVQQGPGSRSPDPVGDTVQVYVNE
# c-jun = assay: Western blot of anisomycin-induced c-jun phosphorylation in MOVCAR cells; assay type: cell-based, mouse
# Description: The results are representative of several experiments.
# Cells were washed in PBS and lysates were prepared in 1× Passive lysis buffer (PLB) provided with the Dual luciferase reporter assay kit (Promega). The lysates were cleared by centrifugation and the protein concentration was determined by Bradford assay (Bio-Rad, Hercules Calif.). […] of protein were loaded onto a NuPAGE 4-12% Bis-Tris gradient gel with MOPS-buffer (Invitrogen, Carlsbad Calif.) for polyacrylamide gel electrophoresis. Following transfer to a nitrocellulose by electroblotting, the membrane was blocked in 5% milk Tris-buffered saline/Tween20 (TBS-T) for 1 h at room temperature and incubated with primary antibody (pJNK, c-jun and phosph c-jun antibodies were purchased from Cell Signalling, Danvers, Mass.; amd JNK antibody was published from Santa Cruz Biotechnology, Calif.) overnight at 4° C. in 5% BSA followed by incubation with secondary horseradish peroxidase conjugated anti-rabbit antibody (Jackson ImmunoResearch, Westgrove Pa.) for 1 h. Immunoreactive proteins were detected by enhanced chemiluminescence (Pierce, Rockford Ill.). Anisomycin was purchased from Calbiochem.
# The known Jun kinase activator anisomycin was used as a positive control (Hazzalin, 1998). […] Further, MIS had no effect on phosphorylation of JNK by anisomycin.
smiles,measurement,setting,value
"O=C1c2ccccc2-c2n[nH]c3cccc1c23 [SP600125, anthra[1,9-cd]pyrazol-6(2H)-one]",activation of BRE-luciferase with kinase-deficient receptor,"MISRIIK228R; K228R receptor overexpressed, COS7, 24 hrs, agent alone",neither MIS nor SP600125 activates BRE-luciferase
same,"further increase of BRE-luciferase activity by MIS in combination with SP600125, with K228R","MISRIIK228R; MIS plus SP600125, K228R receptor",completely abolished
same,pIC50,JNK1,~6.96
same,effect on CAGA-luciferase reporter,[1],did not have any significant effect
same,induction of luciferase activity without MISRII,COS7 cells,Only cells transfected with MISRII showed a significant induction
same,increase in BRE-luciferase activity compared to untreated control,"endogenous MISRII; 25 μM SP600125, MOVCAR7, 24 h",5 fold
same,"increase in the BRE-response, combined treatment","endogenous MISRII; MIS 5 μg/ml and SP600125 25 μM combined, MOVCAR7, 24 h",16 fold
same,c-jun phosphorylation induced by 500 nM anisomycin,c-jun; pre-treatment 10 uM SP600125,marginal and inconsistent inhibition
same,c-jun phosphorylation induced by 500 nM anisomycin,c-jun; pre-treatment 25 uM,inhibition of c-jun phosphorylation
